Usually Ki stands for a dissociation constant, usually derived from enzyme kinetics or from competition with a known ligand. What is called pKi is the Ki on a negative log10 scale, so that one unit is a factor of ten. Higher therefore signals a small Ki.

Molecules are shown by their SMILES. Active and inactive are the calls of the source. Where only a bound is given, the exact number is not on record here.

Assay type in all cases: functional
In assay [1] the target is Mitogen-activated protein kinase 1 (Homo sapiens, UniProt P28482).
Assay [2] addresses Tyrosine-protein kinase Srms (Homo sapiens, UniProt Q9H3Y6).
For assay [3], the target named is Proto-oncogene tyrosine-protein kinase Src (Homo sapiens, UniProt P12931).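 Also: SRC entry within a kinome-wide kinase profiling panel.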
Assay [4] deals with T1, Receptor-type tyrosine-protein kinase FLT3 (Homo sapiens, UniProt P36888).
T1 sequence (P36888 whole entry): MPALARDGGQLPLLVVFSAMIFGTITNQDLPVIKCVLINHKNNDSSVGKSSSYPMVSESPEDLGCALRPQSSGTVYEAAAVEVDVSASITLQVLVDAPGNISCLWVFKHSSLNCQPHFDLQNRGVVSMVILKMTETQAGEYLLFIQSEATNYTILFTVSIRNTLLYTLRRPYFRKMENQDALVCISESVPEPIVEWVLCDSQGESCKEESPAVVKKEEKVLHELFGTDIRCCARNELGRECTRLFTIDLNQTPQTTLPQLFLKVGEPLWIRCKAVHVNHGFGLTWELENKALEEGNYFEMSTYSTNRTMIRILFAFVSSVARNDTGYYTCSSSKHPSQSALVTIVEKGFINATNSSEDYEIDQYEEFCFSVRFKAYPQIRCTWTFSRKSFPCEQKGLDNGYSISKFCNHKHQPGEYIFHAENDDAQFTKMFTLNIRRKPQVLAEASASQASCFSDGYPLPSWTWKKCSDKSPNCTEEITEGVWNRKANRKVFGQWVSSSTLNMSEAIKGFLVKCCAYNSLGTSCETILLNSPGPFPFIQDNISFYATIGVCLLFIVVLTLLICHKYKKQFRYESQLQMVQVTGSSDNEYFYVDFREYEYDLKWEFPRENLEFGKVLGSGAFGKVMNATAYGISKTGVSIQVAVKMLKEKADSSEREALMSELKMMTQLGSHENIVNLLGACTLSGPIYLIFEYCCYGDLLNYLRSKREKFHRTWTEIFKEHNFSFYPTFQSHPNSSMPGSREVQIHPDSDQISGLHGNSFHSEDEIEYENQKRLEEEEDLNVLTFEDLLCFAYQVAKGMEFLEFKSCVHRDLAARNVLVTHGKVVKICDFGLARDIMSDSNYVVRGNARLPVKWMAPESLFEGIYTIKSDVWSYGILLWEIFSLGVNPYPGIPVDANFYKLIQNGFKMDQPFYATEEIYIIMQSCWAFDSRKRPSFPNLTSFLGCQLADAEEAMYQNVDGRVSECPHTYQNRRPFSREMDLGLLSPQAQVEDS

Assay [5] deals with T2, Dual specificity tyrosine-phosphorylation-regulated kinase 3 (Homo sapiens, UniProt O43781).
T2 sequence (O43781 whole entry): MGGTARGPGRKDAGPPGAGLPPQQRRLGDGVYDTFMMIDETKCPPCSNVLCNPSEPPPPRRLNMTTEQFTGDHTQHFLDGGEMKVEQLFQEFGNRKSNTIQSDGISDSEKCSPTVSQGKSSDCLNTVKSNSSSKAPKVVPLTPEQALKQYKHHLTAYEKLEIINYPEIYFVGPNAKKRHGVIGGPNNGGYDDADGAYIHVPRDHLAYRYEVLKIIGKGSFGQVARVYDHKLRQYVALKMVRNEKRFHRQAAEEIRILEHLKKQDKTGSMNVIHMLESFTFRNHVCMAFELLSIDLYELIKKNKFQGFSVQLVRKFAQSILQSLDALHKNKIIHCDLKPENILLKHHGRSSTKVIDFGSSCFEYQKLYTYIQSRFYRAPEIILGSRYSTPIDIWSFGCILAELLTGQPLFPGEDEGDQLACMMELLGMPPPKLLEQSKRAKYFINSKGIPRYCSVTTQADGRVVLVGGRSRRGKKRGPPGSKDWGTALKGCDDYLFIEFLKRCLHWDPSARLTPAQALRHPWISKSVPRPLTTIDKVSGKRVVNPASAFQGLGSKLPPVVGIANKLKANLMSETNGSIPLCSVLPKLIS

Assay [6] concerns the target Tyrosine-protein kinase FRK (Homo sapiens, UniProt P42685).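 Also: FRK tested as one member of a kinome panel.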
For assay [7], the target named is Glycogen synthase kinase-3 alpha (Homo sapiens, UniProt P49840).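 Also: GSK3A result taken from a broad kinome-wide kinase panel.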
In assay [8] the target is Mast/stem cell growth factor receptor Kit (Homo sapiens, UniProt P10721).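 Also: KIT entry within a kinase panel assay.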
Assay [9] concerns the target Megakaryocyte-associated tyrosine-protein kinase (Homo sapiens, UniProt P42679).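 Also: affinity measured as one member of a kinase panel (Navigating the Kinome) against MATK.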
Assay [10] addresses STE20-like serine/threonine-protein kinase (Homo sapiens, UniProt Q9H2G2).
Assay [11] addresses Tyrosine-protein kinase JAK2 (Homo sapiens, UniProt O60674).

Sequence of Glycogen synthase kinase-3 alpha (P49840 whole entry): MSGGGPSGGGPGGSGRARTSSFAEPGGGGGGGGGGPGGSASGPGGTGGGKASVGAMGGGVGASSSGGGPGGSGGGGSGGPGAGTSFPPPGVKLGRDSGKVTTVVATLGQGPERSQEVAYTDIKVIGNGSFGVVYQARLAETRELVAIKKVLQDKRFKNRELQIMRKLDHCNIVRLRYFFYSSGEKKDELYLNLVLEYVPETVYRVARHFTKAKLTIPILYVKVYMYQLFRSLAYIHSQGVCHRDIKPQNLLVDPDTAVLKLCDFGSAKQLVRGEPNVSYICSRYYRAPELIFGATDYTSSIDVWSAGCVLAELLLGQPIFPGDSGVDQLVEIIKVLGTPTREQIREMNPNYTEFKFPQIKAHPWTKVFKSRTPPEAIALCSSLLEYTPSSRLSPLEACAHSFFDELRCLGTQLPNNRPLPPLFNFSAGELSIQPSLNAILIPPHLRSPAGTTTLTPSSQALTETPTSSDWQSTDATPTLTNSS
Sequence of Tyrosine-protein kinase FRK (P42685 whole entry): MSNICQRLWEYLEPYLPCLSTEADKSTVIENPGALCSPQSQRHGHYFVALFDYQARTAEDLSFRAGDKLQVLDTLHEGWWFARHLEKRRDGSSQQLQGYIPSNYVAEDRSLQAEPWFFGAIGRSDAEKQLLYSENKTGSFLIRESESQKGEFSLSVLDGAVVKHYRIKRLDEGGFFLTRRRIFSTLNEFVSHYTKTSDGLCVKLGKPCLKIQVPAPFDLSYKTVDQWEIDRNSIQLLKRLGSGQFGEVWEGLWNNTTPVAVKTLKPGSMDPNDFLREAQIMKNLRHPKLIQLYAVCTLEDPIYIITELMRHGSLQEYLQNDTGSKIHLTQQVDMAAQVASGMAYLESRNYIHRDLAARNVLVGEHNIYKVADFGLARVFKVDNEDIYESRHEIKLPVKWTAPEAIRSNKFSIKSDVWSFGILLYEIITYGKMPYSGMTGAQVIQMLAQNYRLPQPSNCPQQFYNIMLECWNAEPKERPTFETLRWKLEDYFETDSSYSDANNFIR
Sequence of STE20-like serine/threonine-protein kinase (Q9H2G2 whole entry): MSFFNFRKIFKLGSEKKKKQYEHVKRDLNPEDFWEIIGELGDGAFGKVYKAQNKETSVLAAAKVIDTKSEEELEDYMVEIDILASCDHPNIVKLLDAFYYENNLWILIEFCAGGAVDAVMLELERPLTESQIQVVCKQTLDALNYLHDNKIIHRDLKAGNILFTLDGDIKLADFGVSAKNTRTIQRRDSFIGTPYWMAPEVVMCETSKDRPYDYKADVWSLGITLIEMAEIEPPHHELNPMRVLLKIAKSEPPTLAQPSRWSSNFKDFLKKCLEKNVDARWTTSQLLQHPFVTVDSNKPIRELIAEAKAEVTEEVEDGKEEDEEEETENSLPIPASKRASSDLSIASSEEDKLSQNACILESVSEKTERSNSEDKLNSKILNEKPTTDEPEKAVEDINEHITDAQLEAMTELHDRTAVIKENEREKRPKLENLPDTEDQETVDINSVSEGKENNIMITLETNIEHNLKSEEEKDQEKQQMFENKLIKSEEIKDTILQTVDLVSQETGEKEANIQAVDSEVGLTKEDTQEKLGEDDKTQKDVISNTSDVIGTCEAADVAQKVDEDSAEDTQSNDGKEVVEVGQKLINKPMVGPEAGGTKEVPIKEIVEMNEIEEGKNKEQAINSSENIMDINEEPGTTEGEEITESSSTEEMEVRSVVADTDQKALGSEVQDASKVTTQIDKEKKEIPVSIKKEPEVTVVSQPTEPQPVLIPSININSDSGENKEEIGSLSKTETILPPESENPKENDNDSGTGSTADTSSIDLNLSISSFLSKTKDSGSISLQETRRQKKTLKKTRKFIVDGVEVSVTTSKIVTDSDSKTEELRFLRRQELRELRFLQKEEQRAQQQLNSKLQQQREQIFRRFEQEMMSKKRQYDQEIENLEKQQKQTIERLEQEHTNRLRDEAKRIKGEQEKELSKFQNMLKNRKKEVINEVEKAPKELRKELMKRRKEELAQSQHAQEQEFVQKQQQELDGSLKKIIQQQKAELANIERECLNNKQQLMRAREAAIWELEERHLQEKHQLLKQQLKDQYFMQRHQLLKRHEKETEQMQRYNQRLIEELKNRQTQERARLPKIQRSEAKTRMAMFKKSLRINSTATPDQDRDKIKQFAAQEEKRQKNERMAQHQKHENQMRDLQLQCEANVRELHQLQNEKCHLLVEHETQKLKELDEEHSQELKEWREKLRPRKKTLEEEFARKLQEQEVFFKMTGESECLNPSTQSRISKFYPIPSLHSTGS
Sequence of Mitogen-activated protein kinase 1 (P28482 whole entry): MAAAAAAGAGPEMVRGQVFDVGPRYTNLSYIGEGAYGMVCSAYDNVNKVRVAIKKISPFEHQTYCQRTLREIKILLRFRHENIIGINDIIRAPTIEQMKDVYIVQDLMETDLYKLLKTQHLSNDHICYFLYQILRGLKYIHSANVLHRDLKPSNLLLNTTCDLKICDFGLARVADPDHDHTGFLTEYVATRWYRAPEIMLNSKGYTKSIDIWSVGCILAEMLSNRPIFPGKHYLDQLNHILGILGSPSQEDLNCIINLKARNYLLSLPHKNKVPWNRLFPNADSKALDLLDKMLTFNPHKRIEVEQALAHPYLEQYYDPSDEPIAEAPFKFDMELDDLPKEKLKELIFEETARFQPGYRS
Sequence of Tyrosine-protein kinase JAK2 (O60674 whole entry): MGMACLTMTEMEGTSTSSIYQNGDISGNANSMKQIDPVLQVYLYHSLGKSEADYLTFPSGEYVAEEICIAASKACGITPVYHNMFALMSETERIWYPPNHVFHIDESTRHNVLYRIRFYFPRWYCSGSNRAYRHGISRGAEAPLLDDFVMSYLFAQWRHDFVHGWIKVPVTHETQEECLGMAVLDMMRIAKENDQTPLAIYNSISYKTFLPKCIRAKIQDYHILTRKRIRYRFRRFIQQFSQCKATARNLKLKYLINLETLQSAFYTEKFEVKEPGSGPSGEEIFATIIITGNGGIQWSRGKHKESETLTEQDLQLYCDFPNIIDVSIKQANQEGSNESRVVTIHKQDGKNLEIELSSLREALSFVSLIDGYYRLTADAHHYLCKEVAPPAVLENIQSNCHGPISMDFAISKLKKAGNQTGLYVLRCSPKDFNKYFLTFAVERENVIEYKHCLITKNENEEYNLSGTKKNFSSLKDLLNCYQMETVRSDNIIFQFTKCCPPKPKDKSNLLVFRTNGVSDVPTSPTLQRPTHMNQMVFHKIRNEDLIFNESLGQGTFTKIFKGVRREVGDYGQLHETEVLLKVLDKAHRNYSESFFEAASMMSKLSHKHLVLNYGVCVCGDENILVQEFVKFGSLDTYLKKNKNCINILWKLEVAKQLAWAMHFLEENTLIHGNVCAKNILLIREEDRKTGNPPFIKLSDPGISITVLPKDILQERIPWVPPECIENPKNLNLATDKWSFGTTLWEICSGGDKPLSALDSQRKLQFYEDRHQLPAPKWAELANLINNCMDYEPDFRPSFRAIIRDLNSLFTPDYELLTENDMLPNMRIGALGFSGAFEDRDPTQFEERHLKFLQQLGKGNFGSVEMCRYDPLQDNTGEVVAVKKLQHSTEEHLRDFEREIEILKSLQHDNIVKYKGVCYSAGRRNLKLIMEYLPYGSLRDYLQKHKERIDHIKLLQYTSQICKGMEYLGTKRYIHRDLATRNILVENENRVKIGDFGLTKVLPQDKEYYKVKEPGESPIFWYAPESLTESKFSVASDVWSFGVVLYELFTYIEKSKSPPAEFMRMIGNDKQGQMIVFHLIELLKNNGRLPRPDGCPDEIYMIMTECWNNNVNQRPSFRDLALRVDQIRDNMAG
Sequence of Tyrosine-protein kinase Srms (Q9H3Y6 whole entry): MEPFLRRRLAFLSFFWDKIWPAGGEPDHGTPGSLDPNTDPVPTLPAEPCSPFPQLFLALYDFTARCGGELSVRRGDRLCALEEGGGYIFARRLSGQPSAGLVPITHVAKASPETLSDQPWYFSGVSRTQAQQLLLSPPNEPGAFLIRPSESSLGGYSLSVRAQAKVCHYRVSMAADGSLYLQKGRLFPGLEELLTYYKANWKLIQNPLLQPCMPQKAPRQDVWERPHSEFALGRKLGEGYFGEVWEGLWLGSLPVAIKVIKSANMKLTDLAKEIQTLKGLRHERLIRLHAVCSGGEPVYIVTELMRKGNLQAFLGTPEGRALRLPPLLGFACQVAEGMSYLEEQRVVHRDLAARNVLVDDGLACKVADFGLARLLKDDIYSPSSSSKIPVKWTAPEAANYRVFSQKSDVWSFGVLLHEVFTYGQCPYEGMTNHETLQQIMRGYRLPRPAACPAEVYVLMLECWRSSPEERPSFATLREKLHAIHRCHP
Sequence of Proto-oncogene tyrosine-protein kinase Src (P12931 2-536 limits assumed): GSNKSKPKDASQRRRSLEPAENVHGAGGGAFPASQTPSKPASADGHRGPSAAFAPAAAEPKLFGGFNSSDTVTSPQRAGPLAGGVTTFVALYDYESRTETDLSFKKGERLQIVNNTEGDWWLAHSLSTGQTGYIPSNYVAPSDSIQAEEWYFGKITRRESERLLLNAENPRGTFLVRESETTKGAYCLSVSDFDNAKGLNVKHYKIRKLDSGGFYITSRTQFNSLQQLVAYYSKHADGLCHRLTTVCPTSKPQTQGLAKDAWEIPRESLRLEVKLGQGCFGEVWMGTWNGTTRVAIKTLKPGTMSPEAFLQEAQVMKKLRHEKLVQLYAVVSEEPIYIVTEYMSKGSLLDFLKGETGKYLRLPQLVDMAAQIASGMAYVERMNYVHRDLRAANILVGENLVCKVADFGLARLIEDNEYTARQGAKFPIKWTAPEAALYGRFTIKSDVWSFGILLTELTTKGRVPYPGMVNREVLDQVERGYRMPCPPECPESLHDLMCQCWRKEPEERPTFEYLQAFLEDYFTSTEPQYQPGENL

Consider `NC(=O)c1cc(-c2ccnc(N)n2)[nH]c1-c1ccc(Cl)cc1Cl`, for which the Ki in assay [1] is 31.6 nM (active); in assay [2], > 1580 nM (inactive); in assay [3], > 2000 nM (inactive); in assay [4], > 1260 nM (inactive); in assay [5], 10 nM (active); in assay [6] it was 2000 nM (active). Besides, the Ki was 6.31 nM (active) in assay [7]; > 1260 nM (inactive) in assay [8]; > 2000 nM (inactive) in assay [9]; 10000 nM (active) in assay [10]; 20 nM (active) in [11]. The pKi in assay [1] is given as 7.5; in assay [5], 8; in assay [6], 5.7; in assay [7], 8.2; in assay [10] it was 5; in assay [11], 7.7.

Take `NC(COc1cncc(-c2ccc3c(c2)C(=Cc2ccco2)C(=O)N3)c1)Cc1c[nH]c2ccccc12` (stereo not drawn): the inhibitory constant (Ki) is 398 nM (active) in assay [1]; > 1580 nM (inactive) in assay [2]; 398 nM (active) in [3]; 31.6 nM (active) in [4]; 7.94 nM (active) in assay [5]; 316 nM (active) in assay [6]. Moreover, the Ki in assay [7] is 398 nM (active); in assay [8], 126 nM (active); in [9], > 2000 nM (inactive); in [10], 158 nM (active); in [11] it was 316 nM (active).

For the origin of these results see ChEMBL document CHEMBL1201862, “PubChem BioAssay data set” (2004).
